The results in this text go back to US10800792B2, “Inhibitors of Bruton's tyrosine kinase and method of their use” (JANSSEN PHARMACEUTICA NV, priority 2015, dated 2020).

The target in the assay is unphosphorylated-BTK kinase domain (UP-BTK), GST-tagged human BTK (389-659aa) (Homo sapiens (Human), UniProt Q06187). The experiment in a line: BTK kinase Lanthascreen binding assay. Particulars: pIC50 = negative log of the IC50 in molar. The gist of the method:
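Tracer-displacement binding assay against the non-phosphorylated enzyme, read by Lanthascreen. Reported: pIC50.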

[1] abbreviates: 60 minutes incubation, 50 nM Tracer 236.
[2] abbreviates: unphosphorylated-BTK kinase domain, 50 nM Tracer 236, 60 minutes.

Molecules are shown by their SMILES.

unphosphorylated-BTK kinase domain (UP-BTK), GST-tagged human BTK (389-659aa), sequence (Q06187 389-659): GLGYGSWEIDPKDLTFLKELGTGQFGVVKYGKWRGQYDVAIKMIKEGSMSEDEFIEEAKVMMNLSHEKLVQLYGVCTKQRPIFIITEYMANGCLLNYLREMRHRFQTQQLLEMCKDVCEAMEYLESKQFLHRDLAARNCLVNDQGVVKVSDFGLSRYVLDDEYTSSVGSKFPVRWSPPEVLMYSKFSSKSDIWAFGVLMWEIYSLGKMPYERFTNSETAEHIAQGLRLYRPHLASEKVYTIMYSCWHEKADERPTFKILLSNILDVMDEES

For the molecule `Cc1cc(Oc2ccccc2)ccc1N1C(=O)Nc2c(C(=O)N[C@H]3CN(C)CC(F)(F)C3)sc3nccc1c23` [Example 272, (R)—N-(5,5-Difluoro-1-methylpiperidin-3-yl)-5-(2-methyl-4-phenoxyphenyl)-4-oxo-4,5-dihydro-3H-1-thia-3,5,8-triazaacenaphthylene-2-carboxamide], under setting [1], the “BTK_I_binding pIC50” value turned out to be 6.3.

Take `Cc1cc(Oc2ccccc2)ccc1N1C(=O)Nc2c(C(=O)NC3CN(C(C)C)C3)sc3nccc1c23` [Example 273, N-(1-Isopropylazetidin-3-yl)-5-(2-methyl-4-phenoxyphenyl)-4-oxo-4,5-dihydro-3H-1-thia-3,5,8-triazaacenaphthylene-2-carboxamide]: under setting [1], the “BTK_I_binding pIC50” value amounted to 6.3. Still for that read-out and setting: the value for `Cc1cc(Oc2ccccc2)ccc1N1C(=O)Nc2c(C(=O)N[C@@H]3CCCN(C(=O)/C=C/C(C)(C)C)C3)sc3nccc1c23` [Example 274, (R,E)-N-(1-(4,4-Dimethylpent-2-enoyl)piperidin-3-yl)-5-(2-methyl-4-phenoxyphenyl)-4-oxo-4,5-dihydro-3H-1-thia-3,5,8-triazaacenaphthylene-2-carboxamide] was 6.3. For the molecule `Cc1cc(Oc2ccccc2)ccc1N1C(=O)Nc2c(C(=O)NCCN3CCOCC3)sc3nccc1c23` [Example 275, 5-(2-Methyl-4-phenoxyphenyl)-N-(2-morpholinoethyl)-4-oxo-4,5-dihydro-3H-1-thia-3,5,8-triazaacenaphthylene-2-carboxamide], the “BTK_I_binding pIC50” value under setting [1] is listed as 6.3. On the same count and under the same terms, the figure for `Cc1cc(Oc2ccccc2)ccc1N1C(=O)Nc2c(C(=O)NC[C@H]3CCCN3)sc3nccc1c23` [Example 276, (R)-5-(2-Methyl-4-phenoxyphenyl)-4-oxo-N-(pyrrolidin-2-ylmethyl)-4,5-dihydro-3H-1-thia-3,5,8-triazaacenaphthylene-2-carboxamide] is 6.3; for `C/C=C(\Cl)C(=O)N1CCC[C@@H](NC(=O)c2sc3nccc4c3c2NC(=O)N4c2ccc(Oc3ccccc3)cc2C)C1` [Example 277, (R,Z)—N-(1-(2-Chlorobut-2-enoyl)piperidin-3-yl)-5-(2-methyl-4-phenoxyphenyl)-4-oxo-4,5-dihydro-3H-1-thia-3,5,8-triazaacenaphthylene-2-carboxamide] it is 6.2; for `C=CC(=O)N1CCC[C@@H](NC(=O)c2sc3nccc4c3c2NC(=O)N4c2ccc(Oc3ccccc3)cc2C(F)(F)F)C1` [Example 278, (R)—N-(1-Acryloylpiperidin-3-yl)-4-oxo-5-(4-phenoxy-2-(trifluoromethyl)phenyl)-4,5-dihydro-3H-1-thia-3,5,8-triazaacenaphthylene-2-carboxamide] it is 6.2. The same measure, in the same setting: the figure for `C=CC(=O)N1CCC[C@@H](NC(=O)c2sc3nccc4c3c2NC(=O)N4c2cccc(C)c2)C1` [Example 279, (R)—N-(1-Acryloylpiperidin-3-yl)-4-oxo-5-(m-tolyl)-4,5-dihydro-3H-1-thia-3,5,8-triazaacenaphthylene-2-carboxamide] is 6.2; for `O=C(N[C@@H]1CCCNC1)c1sc2nccc3c2c1NC(=O)N3c1ccc(Cl)c(C(F)(F)F)c1` [Example 280, (R)-5-(4-Chloro-3-(trifluoromethyl)phenyl)-4-oxo-N-(piperidin-3-yl)-4,5-dihydro-3H-1-thia-3,5,8-triazaacenaphthylene-2-carboxamide] it is 5.8; for `Cc1c(Oc2ccccc2)ccc(N2C(=O)Nc3c(C(=O)N[C@@H]4CCCN(C)C4)sc4nccc2c34)c1C` [Example 281, (R)-5-(2,3-Dimethyl-4-phenoxyphenyl)-N-(1-methylpiperidin-3-yl)-4-oxo-4,5-dihydro-3H-1-thia-3,5,8-triazaacenaphthylene-2-carboxamide] it is 6.2. Turning to `Cc1cc(Oc2ccccc2)ccc1N1C(=O)Nc2c(C(=O)NCC3CCN(C)C3)sc3nccc1c23` (stereo not shown) [Example 282, 5-(2-Methyl-4-phenoxyphenyl)-N-((1-methylpyrrolidin-3-yl)methyl)-4-oxo-4,5-dihydro-3H-1-thia-3,5,8-triazaacenaphthylene-2-carboxamide], under setting [2], the “BTK_I_binding pIC50” value is reported as 6.2. The same measure, in the same setting: the figure for `Cc1cc(Oc2ccccc2OC(C)C)ccc1N1C(=O)Nc2c(C(=O)N[C@@H]3CCCN(C)C3)sc3nccc1c23` [Example 283, (R)-5-(4-(2-Isopropoxyphenoxy)-2-methylphenyl)-N-(1-methylpiperidin-3-yl)-4-oxo-4,5-dihydro-3H-1-thia-3,5,8-triazaacenaphthylene-2-carboxamide] is 6.2; for `Cc1cc(OC2CCC2)ccc1N1C(=O)Nc2c(C(=O)N[C@@H]3CCCN(C)C3)sc3nccc1c23` [Example 284, (R)-5-(4-Cyclobutoxy-2-methylphenyl)-N-(1-methylpiperidin-3-yl)-4-oxo-4,5-dihydro-3H-1-thia-3,5,8-triazaacenaphthylene-2-carboxamide] it is 6.2. Same read-out and setting: the value for `Cc1cc(Oc2ccccc2)ccc1N1C(=O)Nc2c(C(=O)NC[C@H]3CCCN3C)sc3nccc1c23` [Example 285, (R)-5-(2-Methyl-4-phenoxyphenyl)-N-((1-methylpyrrolidin-2-yl)methyl)-4-oxo-4,5-dihydro-3H-1-thia-3,5,8-triazaacenaphthylene-2-carboxamide] was 6.2. On the same count and under the same terms, the figure for `Cc1cc(Oc2cc(F)cc(F)c2)ccc1N1C(=O)Nc2c(C(=O)N[C@@H]3CCCN(C)C3)sc3nccc1c23` [Example 286, (R)-5-(4-(3,5-Difluorophenoxy)-2-methylphenyl)-N-(1-methylpiperidin-3-yl)-4-oxo-4,5-dihydro-3H-1-thia-3,5,8-triazaacenaphthylene-2-carboxamide] is 6.2; for `C=CC(=O)N1CCC[C@@H](NC(=O)c2sc3nccc4c3c2NC(=O)N4c2cccc(C(F)(F)F)c2)C1` [Example 288, (R)—N-(1-Acryloylpiperidin-3-yl)-4-oxo-5-(3-(trifluoromethyl)phenyl)-4,5-dihydro-3H-1-thia-3,5,8-triazaacenaphthylene-2-carboxamide] it is 6.2. On to `Cc1ccc(Oc2ccc(N3C(=O)Nc4c(C(=O)N[C@@H]5CCCN(C)C5)sc5nccc3c45)c(C)c2)cc1` [Example 290, (R)-5-(2-Methyl-4-(p-tolyloxy)phenyl)-N-(1-methylpiperidin-3-yl)-4-oxo-4,5-dihydro-3H-1-thia-3,5,8-triazaacenaphthylene-2-carboxamide], for which the “BTK_I_binding pIC50” value under setting [2] is recorded as 6.2. Still for that read-out and setting: the value for `Cc1cc(Oc2ccccc2)ccc1N1C(=O)Nc2c(C(=O)NCCN3CCOC[C@@H]3C)sc3nccc1c23` [Example 291, (S)-5-(2-Methyl-4-phenoxyphenyl)-N-(2-(3-methylmorpholino)ethyl)-4-oxo-4,5-dihydro-3H-1-thia-3,5,8-triazaacenaphthylene-2-carboxamide] was 6.1; that for `Cc1cc(Oc2cccnc2)ccc1N1C(=O)Nc2c(C(=O)N[C@@H]3CCCN(C)C3)sc3nccc1c23` [Example 293, (R)-5-(2-Methyl-4-(pyridin-3-yloxy)phenyl)-N-(1-methylpiperidin-3-yl)-4-oxo-4,5-dihydro-3H-1-thia-3,5,8-triazaacenaphthylene-2-carboxamide] was 6.1.
